Legend:
PAMPA-BBB assay = conditions: for Papp: pH 7.4; for BBB permeability prediction: PAMPA-BBB
From the text: Thus, to reduce attrition in the development process, the evaluation of BBB penetration at a very early drug discovery stage is of crucial importance. In light of this, the ability of the previously selected compounds to cross the BBB was predicted by a parallel artificial membrane permeability assay (PAMPA)-BBB,[41] a high-throughput technique widely used as an indicator of a molecule’s passive diffusion through the BBB. Six commercially available drugs were used to validate the assay.
PAMPA (the parallel artificial membrane permeability assay) is a high-throughput screening tool applicable for the prediction of the passive transport of potential drugs across the BBB.[41] In this study, it has been used as a non-cell-based in vitro assay carried out in a coated 96-well membrane filter. The filter membrane of the donor plate was coated with PBL (Polar Brain Lipid, Avanti) in dodecane (4 μL of 20 mg/mL PBL in dodecane) and the acceptor well was filled with 300 μL of phosphate buffer saline, (PBS pH 7.4; VA). The tested compounds were dissolved first in DMSO and then diluted with PBS pH 7.4 to reach the final concentrations of 50–500 μM in the donor well. […] Then, 300 μL of the donor solution (VD) was added to the donor wells and the donor filter plate was carefully put on the acceptor plate so that the coated membrane was “in touch” with both donor solution and acceptor buffer. In principle, the test compound diffuses from the donor well through the polar brain lipid membrane (area = 0.28 cm^2) to the acceptor well. The concentrations of the tested compound in both donor and the acceptor wells were assessed after 3, 4, 5, and 6 h of incubation in quadruplicate using a UV plate reader, Synergy HT (Biotek) at the maximum absorption wavelength of each compound (n=3). In addition to that, solution of the theoretical compound concentration, simulating the equilibrium state established if the membrane were ideally permeable, was prepared and assessed as well. The concentrations of the compounds in the donor and acceptor wells and the equilibrium concentration were calculated from the standard curve and expressed as the permeability (Pe) according to the equation[41] [drawing 1] where [drawing 2]

Aβ42 = target: T1, Aβ42 (Homo sapiens, UniProt P05067); assay: Inhibition of Aβ42 aggregation in intact E. coli cells overexpressing Aβ42 (ThS fluorescence); assay type: cell-based, Escherichia coli; conditions: for % inhibition Aβ42 aggregation @ 10 μM: intact E. coli cells, compound 10 μM, mean ± SEM of four independent experiments; for inhibition at 10 µM: read-out: % inhibition Aβ42 aggregation @ 10 μM, intact E. coli cells, compound 10 μM, mean ± SEM of four independent experiments
T1 construct: expressed in transfected cells; host or cells: Escherichia coli BL21 (DE3), pET28a
T1 sequence (P05067 672-713 limits assumed): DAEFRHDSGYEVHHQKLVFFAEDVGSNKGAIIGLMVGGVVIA
From the text: (§1) As it would have been labor-intensive and expensive to screen such a number of compounds in two separate antiaggregating studies using recombinant Aβ and Tau, we turned our attention to a simple model of protein aggregation, namely, the intact Escherichia coli (E. coli) cells overexpressing Aβ42 and Tau proteins.[28],[29] Building on the fact that inclusion bodies produced by overexpression of these proteins in E. coli mainly consist of fibrillar aggregates, this simple screening method uses bacteria as an in vivo reservoir for tracking the inhibition of amyloid-type protein aggregation in real time, using the amyloid dye thioflavin S (ThS). Of note, this screening has already been used for the evaluation of libraries of antiaggregating compounds.[28]−[38]
Escherichia coli competent cells BL21 (DE3) were transformed with the pET28a vector (Novagen, Inc., Madison, WI) carrying the DNA sequence of Aβ42. Because of the addition of the initiation codon ATG in front of both genes, the overexpressed peptide contains an additional methionine residue at its N terminus. For overnight culture preparation, an amount of 10 mL of M9 minimal medium containing 50 μg·mL^–1 kanamycin was inoculated with a colony of BL21 (DE3) bearing the plasmid to be expressed at 37 °C. For expression of the Aβ42 peptide, the required volume of overnight culture to obtain 1:500 dilution was added into fresh M9 minimal medium containing 50 μg·mL^–1 kanamycin and 250 μM ThS. The bacterial culture was grown at 37 °C and 250 rpm. When the cell density reached ABS600 nm = 0.6, an amount of 980 μL of culture was transferred into Eppendorf tubes of 1.5 mL with 10 μL of each compound to be tested in DMSO and 10 μL of isopropyl 1-thio-β-D-galactopyranoside (IPTG) at 100 mM. The final concentration of the drug was fixed at 10 μM. The samples were grown overnight at 37 °C and 1400 rpm using a thermomixer (Eppendorf, Hamburg, Germany). As the control of the amyloid presence (maximal amyloid presence), the same amount of DMSO without the drug was added to the sample. In parallel, noninduced samples (in the absence of IPTG) were also prepared and used as controls of the non-amyloid presence. In addition, the absorbance at 600 nm of the samples was checked to assess the potential intrinsic toxicity of the compounds and to confirm the correct bacterial growth.
(§2) ThS (T1892) and other chemical reagents were purchased from Sigma (St. Louis, MO). ThS stock solution (25 mM) was prepared in double-distilled water purified through a Milli-Q system (Millipore). For the fluorescence assay, the ThS spectra were measured on an AMINCO-Bowman series 2 luminescence spectrophotometer (Aminco-Bowman AB2, SLM Aminco, Rochester, NY) from 460 to 600 nm at 25 °C using an excitation wavelength of 440 nm and slit widths of 4 nm. The emission at 485 nm (fluorescence peak of ThS in the presence of amyloids) was recorded. To normalize the ThS fluorescence as a function of the bacterial concentration, ABS600nm was obtained using a Shimadzu UV-2401 PC UV–Vis spectrophotometer (Shimadzu, Japan). Note that the fluorescence normalization was carried out considering as 100% the ThS fluorescence of the bacterial cells expressing the peptide or protein in the absence of the drug and 0% the ThS fluorescence of the bacterial cells nonexpressing the peptide or protein.

Tau protein = target: T2, Tau protein (Homo sapiens, UniProt P10636); assay: Inhibition of Tau aggregation in intact E. coli cells overexpressing Tau (ThS fluorescence); assay type: cell-based, Escherichia coli; conditions: for % inhibition Tau aggregation @ 10 μM: intact E. coli cells, compound 10 μM, mean ± SEM of four independent experiments; for inhibition at 10 µM: read-out: % inhibition Tau aggregation @ 10 μM, intact E. coli cells, compound 10 μM, mean ± SEM of four independent experiments
T2 construct: expressed in transfected cells; host or cells: Escherichia coli BL21 (DE3) with pTARA and pRKT42
T2 sequence (P10636 1-441 isoform P10636-8): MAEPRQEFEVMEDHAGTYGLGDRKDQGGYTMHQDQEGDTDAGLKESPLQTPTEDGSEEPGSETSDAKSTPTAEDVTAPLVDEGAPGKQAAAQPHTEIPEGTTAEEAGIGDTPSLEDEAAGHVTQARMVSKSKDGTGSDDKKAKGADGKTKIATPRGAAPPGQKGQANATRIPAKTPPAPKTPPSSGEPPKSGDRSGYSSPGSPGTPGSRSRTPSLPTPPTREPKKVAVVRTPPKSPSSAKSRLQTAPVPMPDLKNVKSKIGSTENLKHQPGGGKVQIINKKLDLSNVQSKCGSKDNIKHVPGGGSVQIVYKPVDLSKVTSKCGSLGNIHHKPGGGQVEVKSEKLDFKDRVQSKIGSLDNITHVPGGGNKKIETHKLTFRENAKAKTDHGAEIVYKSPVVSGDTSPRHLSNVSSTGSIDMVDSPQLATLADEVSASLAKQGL
From the text: as §1
E. coli BL21 (DE3) competent cells were transformed with pTARA containing the RNA-polymerase gen of the T7 phage (T7RP) under the control of the promoter PBAD. E. coli BL21 (DE3) with pTARA competent cells were transformed with the pRKT42 vector encoding four repeats of Tau protein in two inserts. For overnight culture preparation, 10 mL of M9 medium containing 0.5% of glucose, 100 μg·mL^–1 ampicillin, and 12.5 μg·mL^–1 chloramphenicol were inoculated with a colony of BL21 (DE3) bearing the plasmids to be expressed at 37 °C. For expression of Tau protein, the required volume of overnight culture to obtain 1:500 dilution was added to fresh M9 minimal medium containing 0.5% of glucose, 50 μg·mL^–1 ampicillin, 12.5 μg·mL^–1 chloramphenicol, and 25 μM ThS. The bacterial culture was grown at 37 °C and 250 rpm. When the cell density reached ABS600 nm= 0.6, an amount of 980 μL of culture was transferred into Eppendorf tubes of 1.5 mL with 10 μL of each compound to be tested in DMSO and 10 μL of arabinose at 25%. The final concentration of the drug was fixed at 10 μM. The samples were grown overnight at 37 °C and 1400 rpm using a thermomixer (Eppendorf, Hamburg, Germany). As the control of maximal amyloid presence, the same amount of DMSO without the drug was added to the sample. In parallel, noninduced samples (in the absence of arabinose) were also prepared and used as controls for the amyloid absence. In addition, the absorbance at 600 nm of the samples was checked to assess the potential intrinsic toxicity of the compounds and to confirm the correct bacterial growth.
as §2

[1] = Compound stability in the PAMPA buffer solution; assay type: in vitro ADME; conditions: after 6h, donor and acceptor wells
From the text: Table S1. Prediction of BBB penetration of the studied compounds expressed as Pe ± SEM (n=3)

[2] = system: cerebellar granule neurons (CGNs); assay: Neurotoxicity on primary cultures of cerebellar granule neurons (nuclei counting after Hoechst staining); conditions: differentiated CGNs, 24 h, percentage of healthy nuclei on total nuclei, mean ± SEM of three experiments
[3] = PAMPA-BBB penetration estimation

Structure (SMILES)	CNS (+/-) (PAMPA-BBB assay; [3])	% inhibition Aβ42 aggregation @ 10 μM (Aβ42)	inhibition at 10 µM (Aβ42)	% inhibition Tau aggregation @ 10 μM (Tau protein)	inhibition at 10 µM (Tau protein)	Papp (PAMPA-BBB assay; PAMPA)	BBB permeability prediction (PAMPA-BBB assay)	degradation in the PAMPA buffer solution [1]	% survival neurotoxicity @ 10 μM [2]	CNS (+/-) (PAMPA-BBB assay; PAMPA)
CO/N=C(\C(=O)N[C@@H]1C(=O)N2C(C(=O)O)=C(COC(N)=O)CS[C@H]12)c1ccco1 [Cefuroxime, reference compound]	CNS - (CNS - (low BBB permeation predicted): Pe (×10-6 cm s-1) < 2.0)									
CCOC(=O)CN1C(=O)S/C(=C\c2ccc(/C=C3\SC(=O)N(CC(=O)OCC)C3=O)cc2)C1=O [Compound 7, Diethyl 2,2′-((5Z,5′Z)-(1,4-phenylenebis(methanylylidene))bis(2,4-dioxothiazolidin-3-yl-5-ylidene))diacetate]	CNS + (CNS + (high BBB permeation predicted): Pe (×10-6 cm s-1) > 4.0)	40.7 ± 4.4%	40%	30.6 ± 3.6%	30%	11.4 ± 0.49 ×10⁻⁶ cm/s	predicted to passively diffuse across the BBB	< 20%	90.1 ± 2.1%	
CCOC(=O)CN1C(=O)S/C(=C\c2ccc3[nH]c4ccc(/C=C5\SC(=O)N(CC(=O)OCC)C5=O)cc4c3c2)C1=O [Compound 10, Diethyl 2,2′-((5Z,5′Z)-((9H-carbazole-3,6-diyl)bis(methanylylidene))bis(2,4-dioxothiazolidin-3-yl-5-ylidene))diacetate]	CNS + (CNS + (high BBB permeation predicted): Pe (×10-6 cm s-1) > 4.0)	31.9 ± 3.0%	30 to 40%	37.7 ± 4.1%	30 to 40%	5.79 ± 1.16 ×10⁻⁶ cm/s	predicted to passively diffuse across the BBB	< 20%	84.2 ± 6.3%	
O=C(O)CN1C(=O)S/C(=C\c2ccc3[nH]c4ccc(/C=C5\SC(=O)N(CC(=O)O)C5=O)cc4c3c2)C1=O [Compound 16, 2,2′-((5Z,5′Z)-((9H^–Carbazole-3,6-diyl)bis(methanylylidene))bis(2,4-dioxothiazolidin-3-yl-5-ylidene))diacetic acid]		32.1 ± 3.1%	30 to 40%	37.9 ± 3.5%	30 to 40%	0.55 ± 0.12 ×10⁻⁶ cm/s			90.0 ± 2.8%	
CC1(C)c2cc(/C=C3\SC(=O)N(CC(=O)O)C3=O)ccc2-c2ccc(/C=C3\SC(=O)N(CC(=O)O)C3=O)cc21 [Compound 17, 2,2′-((5Z,5′Z)-((9,9-Dimethyl-9H-fluorene-2,7-diyl)bis(methanylylidene))bis(2,4-dioxothiazolidin-3-yl-5-ylidene))diacetic acid]			> 50%		> 50%	0.88 ± 0.2 ×10⁻⁶ cm/s			89.3 ± 2.3%	
CN(C)CCN1C(=O)S/C(=C\c2ccc(/C=C3\SC(=O)N(CCN(C)C)C3=O)cc2)C1=O [Compound 19, (5Z,5′Z)-5,5′-(1,4-Phenylenebis(methanylylidene))bis(3-(2-(dimethylamino)ethyl)thiazolidine-2,4-dione)]			8.1 ± 4.4%		19.4 ± 3.6%				89.4 ± 2.0%	
CN(C)CCN1C(=O)S/C(=C\c2ccc(-c3ccc(/C=C4\SC(=O)N(CCN(C)C)C4=O)cc3)cc2)C1=O [Compound 20, (5Z,5′Z)-5,5′-([1,1′-Biphenyl]-4,4′-diylbis(methanylylidene))bis(3-(2-(dimethylamino)ethyl)thiazolidine-2,4-dione)]			26.4 ± 4.2%		34.9 ± 1.9%				91.1 ± 0.9%	
CN(C)CCN1C(=O)S/C(=C\c2ccc(Cc3ccc(/C=C4\SC(=O)N(CCN(C)C)C4=O)cc3)cc2)C1=O [Compound 21, (5Z,5′Z)-5,5′-((Methylenebis(4,1-phenylene))bis(methanylylidene))bis(3-(2-(dimethylamino)ethyl)thiazolidine-2,4-dione)]			16.1 ± 3.8%		38.7 ± 3.3%				91.1 ± 1.5%	
CN(C)CCN1C(=O)S/C(=C\c2ccc(-c3ccc(/C=C4\SC(=O)N(CCN(C)C)C4=O)s3)s2)C1=O [Compound 24, (5Z,5′Z)-5,5′-([2,2′-Bithiophene]-5,5′-diylbis(methanylylidene))bis(3-(2-(dimethylamino)ethyl)thiazolidine-2,4-dione)]			20.3 ± 4.8%		17.3 ± 4.5%				88.8 ± 2.3%	
CCN(C)C(=O)Oc1cccc([C@H](C)N(C)C)c1 [Rivastigmine, reference compound]										CNS + (key: CNS + (high BBB permeation predicted): Pe (×10-6 cm s-1) > 4.0; CNS - (low BBB permeation predicted): Pe (×10-6 cm s-1) < 2.0; CNS +/- (uncertain BBB permeation): Pe (×10-6 cm s-1) from 4.0 to 2.0)
